Where two headings read alike, the source gives them in different places.
System: 134 cancer cell lines
Assay: Cell viability assay (ATPlite, 72 hours), IC50 on cancer cell line panel

COc1cc(N2CCC(N3CCN(C)CC3)CC2)ccc1Nc1ncc(Cl)c(Nc2ccccc2P(C)(C)=O)n1 [brigatinib]
IC50 (Homo sapiens, LS174T, read-out: IC50 in cell proliferation assay): 1.33 µM | IC50 (Homo sapiens, LS-411N, read-out: IC50 in cell proliferation assay): 1.77 µM | IC50 (Homo sapiens, LoVo, read-out: IC50 in cell proliferation assay): 2.02 µM | IC50 (Homo sapiens, MCF7, read-out: IC50 in cell proliferation assay): 0.601 µM | IC50 (Homo sapiens, MDA-MB-231, read-out: IC50 in cell proliferation assay): 2 µM | IC50 (Homo sapiens, MDA-MB-453, read-out: IC50 in cell proliferation assay): 6.65 µM | IC50 (Homo sapiens, MDA-MB-468, read-out: IC50 in cell proliferation assay): 2.01 µM | IC50 (Homo sapiens, MG-63, read-out: IC50 in cell proliferation assay): 1.05 µM | IC50 (Homo sapiens, MIA PaCa-2, read-out: IC50 in cell proliferation assay): 1.19 µM | IC50 (Homo sapiens, MKN-45, read-out: IC50 in cell proliferation assay): 2.64 µM | IC50 (Homo sapiens, MOLM-13, read-out: IC50 in cell proliferation assay): 0.058 µM | IC50 (Homo sapiens, MOLT-4, read-out: IC50 in cell proliferation assay): 1.95 µM | IC50 (Homo sapiens, MV4-11, read-out: IC50 in cell proliferation assay): 0.033 µM | IC50 (Homo sapiens, MeWo, read-out: IC50 in cell proliferation assay): > 10 µM | IC50 (Homo sapiens, NCCIT, read-out: IC50 in cell proliferation assay): 2.68 µM | IC50 (Homo sapiens, NCI-H82, read-out: IC50 in cell proliferation assay): 1.98 µM | IC50 (Homo sapiens, NCI-H460, read-out: IC50 in cell proliferation assay): 1.38 µM | IC50 (Homo sapiens, NCI-H661, read-out: IC50 in cell proliferation assay): 0.402 µM | IC50 (Homo sapiens, NCI-H716, read-out: IC50 in cell proliferation assay): 0.201 µM | IC50 (Homo sapiens, NCI-H1650, read-out: IC50 in cell proliferation assay): 0.673 µM | IC50 (Homo sapiens, NCI-H1975, read-out: IC50 in cell proliferation assay): 0.449 µM | IC50 (Homo sapiens, NCI-H2228, read-out: IC50 in cell proliferation assay): 0.008 µM | IC50 (Homo sapiens, OVCAR-3, read-out: IC50 in cell proliferation assay): 0.939 µM | IC50 (Homo sapiens, PFSK-1, read-out: IC50 in cell proliferation assay): 0.592 µM | IC50 (Homo sapiens, RL95-2, read-out: IC50 in cell proliferation assay): 0.652 µM | IC50 (Homo sapiens, RPMI-7951, read-out: IC50 in cell proliferation assay): 1.28 µM | IC50 (Homo sapiens, RS4-11, read-out: IC50 in cell proliferation assay): 0.473 µM | IC50 (Homo sapiens, Rec1, read-out: IC50 in cell proliferation assay): 1.32 µM | IC50 (Homo sapiens, SHP77, read-out: IC50 in cell proliferation assay): 5.19 µM | IC50 (Homo sapiens, SK-BR-3, read-out: IC50 in cell proliferation assay): 1.36 µM | IC50 (Homo sapiens, SK-N-AS, read-out: IC50 in cell proliferation assay): 0.618 µM | IC50 (Homo sapiens, SK-N-FI, read-out: IC50 in cell proliferation assay): 1.09 µM | IC50 (Homo sapiens, SK-N-MC, read-out: IC50 in cell proliferation assay): 0.401 µM | IC50 (Homo sapiens, SK-N-SH, read-out: IC50 in cell proliferation assay): 0.367 µM | IC50 (Homo sapiens, SNU-5, read-out: IC50 in cell proliferation assay): 2.15 µM | IC50 (Homo sapiens, SNU-16, read-out: IC50 in cell proliferation assay): 0.376 µM | IC50 (Homo sapiens, SNU-C2B, read-out: IC50 in cell proliferation assay): 0.741 µM | IC50 (Homo sapiens, SU-DHL-1, read-out: IC50 in cell proliferation assay): 0.035 µM | IC50 (Homo sapiens, SU-DHL-6, read-out: IC50 in cell proliferation assay): 1.34 µM | IC50 (Homo sapiens, SUP-T1, read-out: IC50 in cell proliferation assay): 1.48 µM | IC50 (Homo sapiens, SW48, read-out: IC50 in cell proliferation assay): 0.713 µM | IC50 (Homo sapiens, SW480, read-out: IC50 in cell proliferation assay): 1.09 µM | IC50 (Homo sapiens, SW626, read-out: IC50 in cell proliferation assay): 1.3 µM | IC50 (Homo sapiens, SW780, read-out: IC50 in cell proliferation assay): 0.317 µM | IC50 (Homo sapiens, SW837, read-out: IC50 in cell proliferation assay): 0.663 µM | IC50 (Homo sapiens, SW872, read-out: IC50 in cell proliferation assay): 0.78 µM | IC50 (Homo sapiens, SW900, read-out: IC50 in cell proliferation assay): 0.537 µM | IC50 (Homo sapiens, SW948, read-out: IC50 in cell proliferation assay): 1.44 µM | IC50 (Homo sapiens, SW982, read-out: IC50 in cell proliferation assay): 0.49 µM | IC50 (Homo sapiens, SW-620, read-out: IC50 in cell proliferation assay): 0.98 µM | IC50 (Homo sapiens, T98G, read-out: IC50 in cell proliferation assay): 1.34 µM | IC50 (Homo sapiens, TCC-SUP, read-out: IC50 in cell proliferation assay): 1.42 µM | IC50 (Homo sapiens, THP-1, read-out: IC50 in cell proliferation assay): 6.38 µM | IC50 (Homo sapiens, U2OS, read-out: IC50 in cell proliferation assay): 1.24 µM | IC50 (Homo sapiens, U-87 MG, read-out: IC50 in cell proliferation assay): 8.53 µM | IC50 (Homo sapiens, U-118-MG, read-out: IC50 in cell proliferation assay): 1.88 µM | IC50 (Homo sapiens, UMUC3, read-out: IC50 in cell proliferation assay): 1.32 µM | IC50 (Hs766T, read-out: IC50 in cell proliferation assay): 2.54 µM | IC50 (L-82, read-out: IC50 in cell proliferation assay): 0.00637 µM | IC50 (Rh30, read-out: IC50 in cell proliferation assay): 0.464 µM

Reference: article PMC9516332 (Frontiers in Oncology, 2022)
